# Biological target: VR
# Assay: not given
# Conditions: typical value, non-selective cation channel blocker; cited from earlier work
row,Structure (SMILES),Ki [µM]
1,Cl.Cl.Cl.Cl.Cl.Cl.N.N.N.N.N.N.N.N.N.N.N.N.N.N.[O-2].[O-2].[Ru+3].[Ru+3].[Ru+4] [ruthenium red],≥ 140

# Biological target: T1, human capsaicin receptor (Homo sapiens, UniProt Q8NER1)
# T1 construct: transfected with the pBK-CMV expression construct encoding the full length human capsaicin receptor; expressed in transfected cells
# Assay: Calcium mobilization assay, agonist response (capsaicin positive control)
# Assay type: cell-based
# Conditions: capsaicin as positive control in cells expressing human capsaicin receptor; read-out: approximate EC90 concentration
# Experimental: Cells transfected with expression plasmids (as described in Example 4) and thereby expressing human capsaicin receptor are seeded and grown to 70-90% confluency in FALCON black-walled, clear-bottomed 96-well plates (#3904, BECTON-DICKINSON, Franklin Lakes, N.J.). The culture medium is emptied from the 96 well plates and FLUO-3 AM calcium sensitive dye (Molecular Probes, Eugene, Oreg.) is added to each well (dye solution: 1 mg FLUO-3 AM, 440 μL DMSO and 440 μl 20% pluronic acid in DMSO, diluted 1:250 in Krebs-Ringer HEPES (KRH) buffer (25 mM HEPES, 5 mM KCl, 0.96 mM NaH2PO4, 1 mM MgSO4, 2 mM CaCl2, 5 mM glucose, 1 mM probenecid, pH 7.4), 50 μl diluted solution per well). […]
# To measure the ability of a test compound to agonize or antagonize a calcium mobilization response in cells expressing capsaicin receptors to capsaicin or other vanilloid agonist, the EC50 of the agonist capsaicin is first determined. […] Capsaicin-induced calcium mobilization is monitored using either FLUOROSKAN ASCENT (Labsystems; Franklin, Mass.) or FLIPR (fluorometric imaging plate reader system; Molecular Devices, Sunnyvale, Calif.) instruments. […] In this equation, y is the maximum fluorescence signal, x is the concentration of the agonist or antagonist (in this case, capsaicin), a is the Emax, b corresponds to the EC50 value and c is the Hill coefficient. […]
# T1 sequence (Q8NER1 whole entry): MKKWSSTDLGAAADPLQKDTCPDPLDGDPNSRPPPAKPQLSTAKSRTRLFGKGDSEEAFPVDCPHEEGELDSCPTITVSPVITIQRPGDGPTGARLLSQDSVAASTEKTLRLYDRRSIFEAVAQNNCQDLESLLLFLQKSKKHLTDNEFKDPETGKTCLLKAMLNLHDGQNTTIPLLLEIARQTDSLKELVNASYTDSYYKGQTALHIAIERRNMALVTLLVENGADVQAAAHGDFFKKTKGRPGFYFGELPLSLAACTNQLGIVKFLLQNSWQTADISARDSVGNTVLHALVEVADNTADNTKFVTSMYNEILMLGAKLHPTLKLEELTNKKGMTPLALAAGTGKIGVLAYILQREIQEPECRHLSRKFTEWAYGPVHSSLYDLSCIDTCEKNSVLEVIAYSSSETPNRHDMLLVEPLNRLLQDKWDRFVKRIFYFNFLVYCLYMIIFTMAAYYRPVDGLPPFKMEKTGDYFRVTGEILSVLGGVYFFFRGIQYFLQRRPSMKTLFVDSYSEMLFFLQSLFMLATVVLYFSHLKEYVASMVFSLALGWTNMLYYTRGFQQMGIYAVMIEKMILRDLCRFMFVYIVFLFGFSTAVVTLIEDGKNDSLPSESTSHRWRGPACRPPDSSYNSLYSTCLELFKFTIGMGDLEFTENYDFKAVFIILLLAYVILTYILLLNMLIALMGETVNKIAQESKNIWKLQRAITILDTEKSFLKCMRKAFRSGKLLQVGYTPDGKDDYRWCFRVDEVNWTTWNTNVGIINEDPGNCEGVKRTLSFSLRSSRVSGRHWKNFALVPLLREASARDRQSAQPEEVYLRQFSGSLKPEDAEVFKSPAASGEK
row,EC90 [nM],Structure (SMILES)
1,~100,COc1cc(CNC(=O)CCCC/C=C/C(C)C)ccc1O [capsaicin]

# Biological target: T1, human capsaicin receptor
# Assay: Calcium mobilization assay, determination of antagonist activity
# Assay type: cell-based
# Conditions: cells expressing human capsaicin receptor; capsaicin at its EC50; FLUO-3 fluorescence
# Experimental: A cDNA encoding full length human capsaicin receptor (SEQ ID NO:1, 2 or 3 of U.S. Pat. No. 6,482,611) was subcloned in the plasmid pBK-CMV (Stratagene, La Jolla, Calif.) for recombinant expression in mammalian cells.
# Human embryonic kidney (HEK293) cells were transfected with the pBK-CMV expression construct encoding the full length human capsaicin receptor using standard methods. The transfected cells were selected for two weeks in media containing G418 (400 μg/ml) to obtain a pool of stably transfected cells. Independent clones were isolated from this pool by limiting dilution to obtain clonal stable cell lines for use in subsequent experiments.
# Cells transfected with expression plasmids (as described in Example 4) and thereby expressing human capsaicin receptor are seeded and grown to 70-90% confluency in FALCON black-walled, clear-bottomed 96-well plates (#3904, BECTON-DICKINSON, Franklin Lakes, N.J.). The culture medium is emptied from the 96 well plates and FLUO-3 AM calcium sensitive dye (Molecular Probes, Eugene, Oreg.) is added to each well (dye solution: 1 mg FLUO-3 AM, 440 μL DMSO and 440 μl 20% pluronic acid in DMSO, diluted 1:250 in Krebs-Ringer HEPES (KRH) buffer (25 mM HEPES, 5 mM KCl, 0.96 mM NaH2PO4, 1 mM MgSO4, 2 mM CaCl2, 5 mM glucose, 1 mM probenecid, pH 7.4), 50 μl diluted solution per well). Plates are covered with aluminum foil and incubated at 37° C. for 1-2 hours in an environment containing 5% CO2. After the incubation, the dye is emptied from the plates, and the cells are washed once with KRH buffer, and resuspended in KRH buffer.
# To measure the ability of a test compound to agonize or antagonize a calcium mobilization response in cells expressing capsaicin receptors to capsaicin or other vanilloid agonist, the EC50 of the agonist capsaicin is first determined. An additional 20 μl of KRH buffer and 1 μl DMSO is added to each well of cells, prepared as described above. 100 μl capsaicin in KRH buffer is automatically transferred by the FLIPR instrument to each well. Capsaicin-induced calcium mobilization is monitored using either FLUOROSKAN ASCENT (Labsystems; Franklin, Mass.) or FLIPR (fluorometric imaging plate reader system; Molecular Devices, Sunnyvale, Calif.) instruments. Data obtained between 30 and 60 seconds after agonist application are used to generate an 8-point concentration response curve, with final capsaicin concentrations of 1 nM to 3 μM. […] software (Synergy Software, Reading, Pa.) is used to fit the data to the equation: y=a*(1/(1+(b/x)^c)) to determine the 50% excitatory concentration (EC50) for the response. In this equation, y is the maximum fluorescence signal, x is the concentration of the agonist or antagonist (in this case, capsaicin), a is the Emax, b corresponds to the EC50 value and c is the Hill coefficient. Determination of Agonist Activity
# Test compounds are dissolved in DMSO, diluted in 20 μl KRH buffer so that the final concentration of test compounds in the assay well is between 1 μM and 5 μM, and added to cells prepared as described above. The 96 well plates containing prepared cells and test compounds are incubated in the dark, at room temperature for 0.5 to 6 hours. It is important that the incubation not continue beyond 6 hours. Just prior to determining the fluorescence response, 100 μl capsaicin in KRH buffer at twice the EC50 concentration determined as described above is automatically added by the FLIPR instrument to each well of the 96 well plate for a final sample volume of 200 μl and a final capsaicin concentration equal to the EC50. The final concentration of test compounds in the assay wells is between 1 μM and 5 μM.
row,IC50 [nM],Structure (SMILES)
1,≤ 1000,FC(F)(F)c1cccnc1N1CCN(c2cc(N3CCCC3)nc(N3CCOCC3)n2)CC1 [4-(4-pyrrolidin-1-yl-6-{4-[3-(trifluoromethyl)pyridin-2-yl]piperazin-1-yl}pyrimidin-2-yl)morpholine]
2,≤ 1000,Cc1cc(C(=O)O)cnc1N1CCN(c2cc(N3CCCCC3)nc(N3CCCC3C)n2)[C@H](C)C1 (stereo partly shown) [5-methyl-6-{3-methyl-4-[2-(2-methylpyrrolidin-1-yl)-6-piperidin-1-ylpyrimidin-4-yl]piperazin-1-yl}nicotinic acid]
3,≤ 1000,CCOC(=O)c1cnc(N2CCN(c3cc(N4CCCCC4)nc(N4CCCC4C)n3)[C@H](C)C2)c(C)c1 (stereo partly shown) [ethyl 5-methyl-6-{3-methyl-4-[2-(2-methylpyrrolidin-1-yl)-6-piperidin-1-ylpyrimidin-4-yl]piperazin-1-yl}nicotinate]

# Second part, the compound before the results:
row,Structure (SMILES),IC50 [nM]
1,OCCC1CCN(c2cc(N3CCN(c4ncccc4C(F)(F)F)CC3)nc(N3CCOCC3)n2)CC1 [2-[1-(2-morpholin-4-yl-6-{4-[3-(trifluoromethyl)pyridin-2-yl]piperazin-1-yl}pyrimidin-4-yl)piperidin-4-yl]ethanol],≤ 1000
2,"FC(F)(F)c1cccnc1N1CCN(c2cc(N3CCOCC3)nc(N3CCOCC3)n2)CC1 [4,4′-(6-{4-[3-(trifluoromethyl)pyridin-2-yl]piperazin-1-yl}pyrimidine-2,4-diyl)dimorpholine]",≤ 1000
3,FC(F)(F)c1cccnc1N1CCN(c2cc(N3CCCCC3)nc(N3CCOCC3)n2)CC1 [4-(4-piperidin-1-yl-6-{4-[3-(trifluoromethyl)pyridin-2-yl]piperazin-1-yl}pyrimidin-2-yl)morpholine],≤ 1000
4,Fc1ccc2c(c1)CCN2c1cc(N2CCN(c3ncccc3C(F)(F)F)CC2)nc(N2CCOCC2)n1 [5-fluoro-1-(2-morpholin-4-yl-6-{4-[3-(trifluoromethyl)pyridin-2-yl]piperazin-1-yl}pyrimidin-4-yl)indoline],≤ 1000
5,Cc1cc(C(N)=O)cnc1N1CCN(c2cc(N3CCCCC3)nc(N3CCCC3C)n2)[C@H](C)C1 (stereo partly shown) [5-methyl-6-{3-methyl-4-[2-(2-methylpyrrolidin-1-yl)-6-piperidin-1-ylpyrimidin-4-yl]piperazin-1-yl}nicotinamide],≤ 1000
6,Cc1cc(C(=O)O)cnc1N1CCN(c2cc(N3CCC(F)CC3)nc(N3CCCC3C)n2)[C@H](C)C1 (stereo partly shown) [6-{4-[6-(4-fluoropiperidin-1-yl)-2-(2-methylpyrrolidin-1-yl)pyrimidin-4-yl]-3-methylpiperazin-1-yl}-5-methylnicotinic acid],≤ 1000
7,"FC(F)(F)c1cccnc1N1CCN(c2cc(N3CCC4(CC3)OCCO4)nc(N3CCOCC3)n2)CC1 [8-(2-morpholin-4-yl-6-{4-[3-(trifluoromethyl)pyridin-2-yl]piperazin-1-yl}pyrimidin-4-yl)-1,4-dioxa-8-azaspiro[4.5]decane]",≤ 1000
8,Cc1cc(CO)cnc1N1CCN(c2cc(N3CCCCC3)nc(N3CCCC3C)n2)[C@H](C)C1 (stereo partly shown) [(5-methyl-6-{3-methyl-4-[2-(2-methylpyrrolidin-1-yl)-6-piperidin-1-ylpyrimidin-4-yl]piperazin-1-yl}pyridin-3-yl)methanol],≤ 1000

# Reference: US20080045525A1, “Piperazinyl-Pyridine Analogues” (priority 2004, published 2008)
